The text below walks through data of patent US8686022B2, “7-(piperazine-1-ymethyl)-1H-indole-2-carboxylic acid (phenyl)-amide derivatives and allied compounds as p38 MAP kinase inhibitors for the treatment of respiratory diseases” (Boehringer Ingelheim International GmbH, priority 2008, dated 2014).

Values after ≈ are worked out from the molar mass of the structure shown. Bounds are passed on as bounds.

For one data set, the target named is p38 MAP-kinase (Homo sapiens, UniProt Q16539). In words: p38 MAP-kinase enzymatic assay (phosphorylation of GST-tagged ATF2, chemoluminescence). Type of data set: biochemical. The settings on record: inhibitor concentration 1 μM; activated p38 MAP-kinase 1 nM; ATP 100 μM; read-out: p38 (% Inh @ 1 μM). The essentials: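 Activated p38 MAP-kinase (1 nM) preincubated 4 h at ambient temperature with 1 μM compound in HEPES pH 7, MgCl2, DTT, TWEEN20, then reacted 1 h with 10 nM GST-ATF2 and 100 μM ATP. Phospho-ATF2 detected by AlphaScreen-type bead luminescence; percent inhibition at 1 μM versus uninhibited and kinase-free controls.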

Another data set has as its target cytochrome P450 2C9 (Homo sapiens, UniProt P11712). In words: Determining the cyp2C9 activity (O-demethylation of [O-methyl-14C]-naproxen). In kind it is in vitro ADME. The settings on record: human recombinant cytochrome P450 2C9; 37° C.; <0.4 μM when inhibition >50% at lowest concentration; read-out: CYP 2C9 IC50. The essentials:
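Recombinant CYP2C9 (40 pmol/ml) with 80 μM [O-methyl-14C]-naproxen in 0.1 M Tris, 5 mM MgCl2; test compound at 50, 10, 2 and 0.4 μM in duplicate. Started with 1 mM NADPH, stopped after 15 min with TCA; 14C-formaldehyde separated by solid-phase extraction and counted by scintillation. IC50 from least-squares fit.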

Data set [1] is described as follows: Determining the solubility (saturated solution in McIlvaine buffer pH 7.4, UV spectroscopy). Type of data set: physicochemical. The settings on record: pH 7.4, aqueous buffer, thermodynamic from solid, shaken 2 hours, 0.75 mg solid in 0.75 ml. In a few lines:
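Excess solid (0.75 mg per 0.75 ml) shaken 2 h in McIlvaine buffer pH 7.4, then filtered through 0.45 μm PTFE membrane with first drops discarded. Dissolved amount measured by UV spectroscopy.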

Sequence of p38 MAP-kinase (Q16539 whole entry): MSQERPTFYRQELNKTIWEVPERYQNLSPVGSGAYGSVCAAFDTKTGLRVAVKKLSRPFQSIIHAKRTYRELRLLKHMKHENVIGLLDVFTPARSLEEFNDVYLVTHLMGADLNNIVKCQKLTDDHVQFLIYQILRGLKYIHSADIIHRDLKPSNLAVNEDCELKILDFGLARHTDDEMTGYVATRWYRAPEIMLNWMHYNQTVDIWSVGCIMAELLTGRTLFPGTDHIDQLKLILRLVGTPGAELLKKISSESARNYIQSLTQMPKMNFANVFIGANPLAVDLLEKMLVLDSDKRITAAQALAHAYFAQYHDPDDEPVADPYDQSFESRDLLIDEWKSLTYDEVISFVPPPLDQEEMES
Sequence of cytochrome P450 2C9 (P11712 whole entry): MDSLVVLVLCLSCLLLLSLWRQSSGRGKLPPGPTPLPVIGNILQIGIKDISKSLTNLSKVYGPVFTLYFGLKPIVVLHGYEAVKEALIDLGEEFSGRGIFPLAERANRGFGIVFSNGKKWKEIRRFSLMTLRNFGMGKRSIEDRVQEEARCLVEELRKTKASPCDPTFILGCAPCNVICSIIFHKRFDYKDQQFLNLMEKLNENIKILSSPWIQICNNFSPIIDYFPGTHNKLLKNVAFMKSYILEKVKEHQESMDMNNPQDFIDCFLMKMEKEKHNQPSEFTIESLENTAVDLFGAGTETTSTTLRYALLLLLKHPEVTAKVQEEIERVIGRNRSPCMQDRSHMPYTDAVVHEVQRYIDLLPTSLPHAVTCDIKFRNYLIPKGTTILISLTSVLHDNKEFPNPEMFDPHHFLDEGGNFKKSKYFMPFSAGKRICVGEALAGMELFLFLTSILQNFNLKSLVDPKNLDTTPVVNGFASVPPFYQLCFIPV

With `COc1c(CN2CCCC(N(C)C)C2)cc(C(C)(C)C)cc1NC(=O)c1cc2cccc(CN3CCN(C(=O)[C@@H]4CCCN4C)CC3)c2n1C` (stereo partly drawn) [9(3), 1-methyl-7-[4-((2S)-1-methyl-pyrrolidine-2-carbonyl)-piperazin-1-ylmethyl]-1H-indole-2-carboxylic acid-[5-tert-butyl-3-(3-dimethylamino-piperidin-1-ylmethyl)-2-methoxy-phenyl]-amide], on p38 MAP-kinase, the inhibition at 1 µM stood at 98.9%. The half-inhibitory concentration (IC50) on cytochrome P450 2C9 was found to be 6840 nM. In addition, the solubility at 2 h in data set [1] amounted to 700 µg/mL (≈ 1020 µM).
The like results for `COc1c(NC(=O)c2cc3cccc(CN4CCN(C(=O)[C@@H]5CCCN5C)CC4)c3n2C)cc(C(C)C)cc1NS(C)(=O)=O` [11(2), (S)-1-methyl-7-[4-(1-methyl-pyrrolidine-2-carbonyl)-piperazin-1-ylmethyl]-1H-indole-2-carboxylic acid-(5-isopropyl-3-methanesulphonylamino-2-methoxy-phenyl)-amide] were, in that order, 18%, 10400 nM and above 1000 µg/mL.
As for `COc1c(NC(=O)c2cc3cccc(CC4CCCN(C(=O)C5CCN(C)CC5)CC4)c3n2C)cc(C(C)(C)C)cc1NS(C)(=O)=O` (stereo not drawn) [1(19), 1-methyl-7-[1-(1-methyl-piperidine-4-carbonyl)-azepan-4-ylmethyl]-1H-indole-2-carboxylic acid-(5-tert-butyl-3-methanesulphonylamino-2-methoxy-phenyl)-amide], the inhibition at 1 µM at p38 MAP-kinase is 98.5%. Besides, the IC50 at cytochrome P450 2C9 came out at 3590 nM. For the same compound, the solubility at 2 h in data set [1] was determined as 98 µg/mL (≈ 147 µM).
Regarding `COc1c(CS(C)(=O)=O)cc(C(C)(C)C)cc1NC(=O)c1cc2cccc(CN3CCN(C(=O)[C@@H]4CCCN4C)CC3)c2n1C` [11(5), (S)-1-methyl-7-[4-(1-methyl-pyrrolidine-2-carbonyl)-piperazin-1-ylmethyl]-1H-indole-2-carboxylic acid-(5-tert-butyl-3-methanesulphonylmethyl-2-methoxy-phenyl)-amide], the inhibition at 1 µM on p38 MAP-kinase was 99.6%. The concentration for half-maximal inhibition (IC50) at cytochrome P450 2C9 amounted to 2340 nM. For the same compound, in data set [1], the concentration in solution (solubility at 2 h) was 53 µg/mL (≈ 83.1 µM).
In the same order, the values of `COc1c(NC(=O)c2cc3cccc(CN4CCN(C(=O)[C@@H]5CCCN5C)CC4)c3n2C)cc(C(C)(C)C)cc1NS(C)(=O)=O` [1(1), (S)-1-methyl-7-[4-(1-methyl-pyrrolidine-2-carbonyl)-piperazin-1-ylmethyl]-1H-indole-2-carboxylic acid(5-tert-butyl-3-methanesulphonylamino-2-methoxy-phenyl)-amide] are 99.6%, 2130 nM and 340 µg/mL (≈ 532 µM).
In the same order, the values of `COc1c(NC(=O)c2cc3cccc(CN4CCN(C(=O)C5CN(C)C5)CC4)c3n2C)cc(C(C)(C)C)cc1NS(C)(=O)=O` [1(2), 1-methyl-7-[4-(1-methyl-azetidine-3-carbonyl)-piperazin-1-ylmethyl]-1H-indole-2-carboxylic acid(5-tert-butyl-3-methanesulphonylamino-2-methoxy-phenyl)-amide] are 98.5%, 1340 nM and 59 µg/mL (≈ 94.4 µM).
The like results for `COc1c(NC(=O)c2cc3cccc(CN4CCCN(C(=O)[C@@H]5CCCN5C)CC4)c3n2C)cc(C(C)(C)C)cc1NS(C)(=O)=O` [Example 8, 1-methyl-7-[4-((2S)-1-methyl-pyrrolidine-2-carbonyl)-[1,4]diazepan-1-ylmethyl]-1H-indole-2-carboxylic acid-(5-tert-butyl-3-methanesulphonylamino-2-methoxy-phenyl)-amide] were, in that order, 97.3%, 1670 nM and 280 µg/mL (≈ 429 µM).
For the compound `COc1c(NC(=O)c2cc3cccc(CN4CCC(C(=O)N5CCN(C)CC5)CC4)c3n2C)cc(C(C)(C)C)cc1NS(C)(=O)=O` [1(22), 1-methyl-7-[4-(4-methyl-piperazine-1-carbonyl)-piperidin-1-ylmethyl]-1H-indole-2-carboxylic acid-(5-tert-butyl-3-methanesulphonylamino-2-methoxy-phenyl)-amide], the inhibition at 1 µM at p38 MAP-kinase amounted to 99.1%. The IC50 on cytochrome P450 2C9 came to 1540 nM. In data set [1], the solubility at 2 h was 42 µg/mL (≈ 64.3 µM).
In the same order, the values of `COc1c(NC(=O)c2cc3cccc(CN4CCN(C(=O)[C@@H]5CCCN5C)CC4)c3n2C)cc(C(C)(C)C)cc1C(=O)NC1CC1` [Example 10, (S)-1-methyl-7-[4-(1-methyl-pyrrolidine-2-carbonyl)-piperazin-1-ylmethyl]-1H-indole-2-carboxylic acid-(5-tert-butyl-3-cyclopropylcarbamoyl-2-methoxy-phenyl)-amide] are 99.1%, 1320 nM and 420 µg/mL (≈ 668 µM).
The like results for `COc1c(NC(=O)c2cc3cccc(CN4CCN(C(=O)CN5CC[C@H](O)C5)CC4)c3n2C)cc(C(C)(C)C)cc1NS(C)(=O)=O` [1(15), (S)-7-{4-[2-(3-hydroxy-pyrrolidin-1-yl)-acetyl]-piperazin-1-ylmethyl}-1-methyl-1H-indole-2-carboxylic acid-(5-tert-butyl-3-methanesulphonylamino-2-methoxy-phenyl)-amide] were, in that order, 98.9%, 1210 nM and 73 µg/mL (≈ 111 µM).
In the same order, the values of `COc1c(NC(=O)c2cc3cccc(CN4CCN(C(=O)[C@@H]5CCCN5C)CC4)c3n2C)cc(C(F)(F)F)cc1NS(C)(=O)=O` [14(1), (S)-1-methyl-7-[4-(1-methyl-pyrrolidine-2-carbonyl)-piperazin-1-ylmethyl]-1H-indole-2-carboxylic acid-(3-methanesulphonylamino-2-methoxy-5-trifluoromethyl-phenyl)-amide] are 97.9%, 5270 nM and 97 µg/mL (≈ 149 µM).
For the compound `CCN(CC)Cc1cc(C(C)(C)C)cc(NC(=O)c2cc3cccc(CN4CCN(C(=O)[C@@H]5CCCN5C)CC4)c3n2C)c1OC` [9(2), (S)-1-methyl-7-[4-(1-methyl-pyrrolidine-2-carbonyl)-piperazin-1-ylmethyl]-1H-indole-2-carboxylic acid-(5-tert-butyl-3-diethylaminomethyl-2-methoxy-phenyl)-amide], on p38 MAP-kinase, the inhibition at 1 µM is 98.2%. Further, on cytochrome P450 2C9, the IC50 came out at 7760 nM. Moreover, in data set [1], the concentration in solution (solubility at 2 h) was 860 µg/mL (≈ 1360 µM).
In the same order, the values of `COc1c(NC(=O)c2cc3cccc(CN4CCN(C(=O)CN5CCCC5)CC4)c3n2C)cc(C(C)(C)C)cc1NS(C)(=O)=O` [1(16), 1-methyl-7-[4-(2-pyrrolidin-1-yl-acetyl)-piperazin-1-ylmethyl]-1H-indole-2-carboxylic acid-(5-tert-butyl-3-methanesulphonylamino-2-methoxy-phenyl)-amide] are 98.4%, 20400 nM and 620 µg/mL (≈ 971 µM).
In the case of `COc1c(NC(=O)c2cc3cccc(CN4CCN(C(=O)C5CCN5C)CC4)c3n2C)cc(C(C)(C)C)cc1NS(C)(=O)=O` (stereo not drawn) [1(5), 1-methyl-7-[4-(1-methyl-azetidine-2-carbonyl)-piperazin-1-ylmethyl]-1H-indole-2-carboxylic acid(5-tert-butyl-3-methanesulphonylamino-2-methoxy-phenyl)-amide], on p38 MAP-kinase, the inhibition at 1 µM is 99%. In addition, the IC50 on cytochrome P450 2C9 was 1630 nM. Also, the concentration in solution in data set [1] (solubility at 2 h) was 670 µg/mL (≈ 1070 µM).
Take `COc1c(NC(=O)c2cc3cccc(CC4CCN(C(=O)[C@H]5CCCN5C)CC4)c3n2C)cc(C(C)(C)C)cc1NS(C)(=O)=O` [1(6), (R)-1-methyl-7-[1-(1-methyl-pyrrolidine-2-carbonyl)-piperidin-4-ylmethyl]-1H-indole-2-carboxylic acid(5-tert-butyl-3-methanesulphonylamino-2-methoxy-phenyl)-amide]: the inhibition at 1 µM at p38 MAP-kinase was 99.3%. The IC50 on cytochrome P450 2C9 was determined as 1430 nM. Further, in data set [1], the solubility at 2 h is 560 µg/mL (≈ 878 µM).
Consider `COc1c(NC(=O)c2cc3cccc(CN4CCN(C(=O)[C@@H]5CCCN5C)CC4)c3n2C)cc(C(C)(C)C)cc1NC(=O)C1CC1` [12(4), (S)-1-methyl-7-[4-(1-methyl-pyrrolidine-2-carbonyl)-piperazin-1-ylmethyl]-1H-indole-2-carboxylic acid-[5-tert-butyl-3-(cyclopropanecarbonyl-amino)-2-methoxy-phenyl]-amide], for which, on p38 MAP-kinase, the inhibition at 1 µM is 96.4%. Further, the IC50 at cytochrome P450 2C9 was 650 nM. For the same compound, in data set [1], the concentration in solution (solubility at 2 h) came to 59 µg/mL (≈ 93.8 µM).
In the same order, the values of `COc1c(CN(C(C)C)C(C)C)cc(C(C)(C)C)cc1NC(=O)c1cc2cccc(CN3CCN(C(=O)[C@@H]4CCCN4C)CC3)c2n1C` [9(1), (S)-1-methyl-7-[4-(1-methyl-pyrrolidine-2-carbonyl)-piperazin-1-ylmethyl]-1H-indole-2-carboxylic acid-{5-tert-butyl-3-[(diisopropylamino)-methyl]-2-methoxy-phenyl}-amide] are 95.8%, 6700 nM and 570 µg/mL (≈ 865 µM).
In the same order, the values of `COc1c(NC(=O)c2cc3cccc(CN4CCN(C(=O)[C@@H]5CCCN5C)CC4)c3n2C)cc(CC(C)C)cc1NS(C)(=O)=O` [8(2), (S)-1-methyl-7-[4-(1-methyl-pyrrolidine-2-carbonyl)-piperazin-1-ylmethyl]-1H-indole-2-carboxylic acid-(5-isobutyl-3-methanesulphonylamino-2-methoxy-phenyl)-amide] are 99.5%, 5770 nM and 120 µg/mL (≈ 188 µM).

For orientation: IC50 means the midpoint of a concentration-inhibition curve. As a reminder, the solubility is the concentration that dissolves in the medium under given conditions.
